Source: PMC5494507, “γ‐Secretase inhibitors in cancer clinical trials are pharmacologically and functionally distinct” (EMBO Molecular Medicine, 2017)

Assays:
rAPPC100sub = assay: Cell-free γ-secretase assay, rAPPC100sub (IP-MS), low-dose potentiation; type: biochemical; settings: in vitro assay, recombinant substrate
Excerpt: We next tested all GSIs on cAPPC100sub and full‐length APP stably overexpressing cells. […] The low‐dose potentiation of γ‐secretase cleavage was further mechanistically probed using in vitro assays with recombinant substrates and IP‐MS.

[1] = system: MDA‐MB‐231 and MDA‐MB‐468 mammospheres; assay: Secondary mammosphere formation / limiting dilution assay and CD44+CD24low flow cytometry; type: cell-based
Experimental: Suppression of breast cancer stem cells is thought to be a key mechanism of action for the anti‐tumor activity of GSIs in breast cancer models and in patient‐derived mammospheres (Takebe et al, 2015). […] Stem‐like cells are enriched in secondary mammospheres, but their number declines after four to five passages (Dontu et al, 2003; Dey et al, 2009). Therefore, we compared the GSIs in a secondary mammosphere formation assay at 1, 5, and 10 μM concentrations (Fig 7A and B for 10 μM and Appendix Fig S4 for 1 and 5 μM). We separately counted large mammospheres (> 500 μm in diameter) and small mammospheres (100–500 μm in diameter).
For limiting dilution assay, we used two distinct TNBC cell lines. MDA‐MB‐231 is molecularly “Mesenchymal”, PTEN wild type. MDA‐MB‐468 (ATCC, Manassas, VA) is molecularly “Basal‐like” and PTEN null. GSI‐treated (1, 5, and 10 μM twice/week, for 1 week) mammospheres were dissociated by trypsinization, and equal numbers of viable cells were re‐plated at clonal density (1,000, 100, and 10 cells) without GSIs. After 7‐day incubation, large mammospheres (> 500 μm) and small mammospheres (100–500 μm) were counted manually using a Nikon Eclipse Microscope. Next, we investigated whether PF‐3084014 selectively affected cancer stem‐like cells (CSCs) using both MDA‐MB‐231 and MDA‐MB‐468 cell lines. Mammospheres were treated with increasing concentration of PF‐3084014 for 1 week, and CSCs (CD44^+CD24^low) (Azzam et al, 2013) were analyzed by flow cytometry using anti‐human PE‐CD44 (Clone G44‐26) and FITC‐CD24 (Clone ML5) (BD Biosciences) antibody.

[2] = system: rAPPC100sub and rNOTCH1‐4subs; assay: Cell-free γ-secretase assay, rAPPC100sub and rNOTCH1-4subs (IP-MS); type: biochemical, human; settings: 25 nM
Experimental: cDNAs encoding NOTCH1, NOTCH2, NOTCH3, NOTCH4, CD44, and VEGFR1 γ‐secretase substrates were generated by gene synthesis conducted by Genscript (Piscataway, NJ, USA). The general design of the constructs was similar to a recombinant substrate (APP C100) that has been used by our group and others to assay Aβ production in in vitro γ‐secretase assays. All constructs contain an NH2‐terminal amyloid β peptide (Aβ) epitope tag followed by the juxtamembrane region (JMD) of the given substrate and a FLAG tag ([…]) at the COOH‐terminal. A schematic representation of the substrates is provided in Fig 1A, and sequences of the cDNAs and the proteins are provided in Appendix Fig S5. For clarity, these substrates are referred to as recombinant substrates (e.g., Notch1 is rNOTCH1sub). Substrate cDNAs were cloned into pET21 (Novagen, Billerica, MA, USA) for expression in bacterial cells.
pET21 plasmids containing the substrate cDNAs were transformed into BL21 E. coli. cells. Overexpression was induced with 0.5 mM isopropyl β‐D‐1‐thiogalactopyranoside (IPTG). […]
Immunoprecipitation and mass spectrometry of Aβ and Aβ‐like peptides in cell‐free assay or conditioned media were performed as previously described (Ran et al, 2014). […] Samples were analyzed using a Bruker Microflex LRF‐MALDI‐TOF mass spectrometer.

| Compound | concentration at which cleavage from rAPPC100sub was potentiated (rAPPC100sub) [nM] | absolute cell counts of mammospheres ([1]; 5 and 10 μM, both cell lines) | percentage of CD44+CD24low cells ([1]; all concentrations tested, flow cytometry) | total cell number and CSC fraction ([1]; both cell lines, 1 week treatment) | absolute numbers of CD44+CD24low cells ([1]; flow cytometry) | cleavage of the rAPPC100sub and rNOTCH1‐4subs [2] |
| --- | --- | --- | --- | --- | --- | --- |
| CC(C)[C@H](O)C(=O)N[C@@H](C)C(=O)N[C@@H]1C(=O)N(C)CCc2ccccc21 [Semagacestat] | 0.16 |  |  |  |  |  |
| CCC[C@H](N[C@H]1CCc2cc(F)cc(F)c2C1)C(=O)Nc1cn(C(C)(C)CNCC(C)(C)C)cn1 [PF‐3084014] |  | significantly more potent than the other compounds | decrease in percentage | decreased the total cell number and the CSC fraction | dose‐dependent decrease |  |
| CN1C(=O)[C@@H](NC(=O)[C@H](CCC(F)(F)F)[C@H](CCC(F)(F)F)C(N)=O)N=C(c2ccccc2)c2ccccc21 [BMS‐906024] | 0.03 |  |  |  |  | completely blocked cleavage |
